Data from the supplement of paper PMC12370961.

Legend:
Assay in all cases: differential drug sensitivity score (dDSS) relative to sarcoma reference cohort mean DSS (DSS units (0-100 scale difference)); higher = more selective sensitivity than reference sarcomas
Conditions in all cases: exposure time: 72 h; concentration range: 10-10000 nM
CDS-ZH001 = test system: CDS-ZH001 (patient-derived CIC-DUX4 sarcoma tumoroid)
Experimental: (§1)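 Drug response profiling of patient-derived Ewing sarcoma and CIC::DUX4 sarcoma tumoroid models (or cells tested directly after isolation from the tumor, 'direct'). The DSS is the normalised AUC (0-100); dDSS is the sample DSS minus the mean DSS of a 34-sarcoma reference cohort profiled in the same lab.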

ES-ZH016 direct = test system: ES-ZH016 direct (Ewing sarcoma cells right after isolation)
Experimental: as §1

ES-ZH009 = test system: ES-ZH009 (patient-derived Ewing sarcoma tumoroid)
Experimental: as §1

CDS-ZH002 = test system: CDS-ZH002 (patient-derived CIC-DUX4 sarcoma tumoroid)
Experimental: as §1

CDS-ZH001-2 = test system: CDS-ZH001-2 (patient-derived CIC-DUX4 sarcoma tumoroid)
Experimental: as §1

ES-ZH016 = test system: ES-ZH016 (patient-derived Ewing sarcoma tumoroid)
Experimental: as §1

ES-ZH008 = test system: ES-ZH008 (patient-derived Ewing sarcoma tumoroid)
Experimental: as §1

ES-ZH002 = test system: ES-ZH002 (patient-derived Ewing sarcoma tumoroid)
Experimental: as §1

CDS-ZH003 = test system: CDS-ZH003 (patient-derived CIC-DUX4 sarcoma tumoroid)
Experimental: as §1

ES-ZH001 = test system: ES-ZH001 (patient-derived Ewing sarcoma tumoroid)
Experimental: as §1

ES-ZH004 = test system: ES-ZH004 (patient-derived Ewing sarcoma tumoroid)
Experimental: as §1

ES-ZH007 = test system: ES-ZH007 (patient-derived Ewing sarcoma tumoroid)
Experimental: as §1

CDS-ZH002 direct = test system: CDS-ZH002 direct (CIC-DUX4 sarcoma cells right after isolation)
Experimental: as §1

SMILES	differential drug sensitivity score (CDS-ZH001)	differential drug sensitivity score (ES-ZH016 direct)	differential drug sensitivity score (ES-ZH009)	differential drug sensitivity score (CDS-ZH002)	differential drug sensitivity score (CDS-ZH001-2)	differential drug sensitivity score (ES-ZH016)	differential drug sensitivity score (ES-ZH008)	differential drug sensitivity score (ES-ZH002)	differential drug sensitivity score (CDS-ZH003)	differential drug sensitivity score (ES-ZH001)	differential drug sensitivity score (ES-ZH004)	differential drug sensitivity score (ES-ZH007)	differential drug sensitivity score (CDS-ZH002 direct)
CC(=O)Nc1cccc(-n2c(=O)n(C3CC3)c(=O)c3c(Nc4ccc(I)cc4F)n(C)c(=O)c(C)c32)c1 [Trametinib]	-3.5	-3.5	-3.5	-3.5	-3.5	-3.5	4.1	9.5	3.2	3.2	1.5	-3.5	-3.5
Cn1ncc(Cl)c1-c1cc(C(=O)N[C@H](CN)Cc2ccc(F)c(F)c2)oc1Cl [Uprosertib]	3.3	-3.2	5.6	-3.2	3.3	1	11.2	10.7	-2.5	-2.4	7.2	1	-6
CCCC(CCC)C(=O)O [Valproic acid]	-2.5	6.5	1.7	-2.5	-0.9	-2.5	1.7	4.4	-1.3	2.8	8.2	0.9	-1.9
C[C@]1(c2nc3c(C(N)=O)cccc3[nH]2)CCCN1 [Veliparib]	-1.3	5.6	-1.3	-1.3	-1.2	1.2	5.8	8.8	-0.6	4.9	5.1	1.4	-1.3
CCCS(=O)(=O)Nc1ccc(F)c(C(=O)c2c[nH]c3ncc(-c4ccc(Cl)cc4)cc23)c1F [Vemurafenib]	-0.6	-0.6	0.8	-0.6	-0.6	-0.6	-0.6	-0.6	7.4	-0.6	-0.6	-0.6	-0.6
CC1(C)CCC(CN2CCN(c3ccc(C(=O)NS(=O)(=O)c4ccc(NCC5CCOCC5)c([N+](=O)[O-])c4)c(Oc4cnc5[nH]ccc5c4)c3)CC2)=C(c2ccc(Cl)cc2)C1 [Venetoclax]	3.9	5.9	-1.6	-4.7	1.4	-2.6	7.3	7.9	-9.4	6.9	6.1	-4.7	-3.5
O=C(/C=C\n1cnc(-c2cc(C(F)(F)F)cc(C(F)(F)F)c2)n1)NNc1ccccn1 [Verdinexor]	0.6	3.7	-3.2	-3.6	7.9	0.1	17.7	11	-13	3.4	8.4	1.5	0
CC[C@]1(O)C[C@@H]2CN(CCc3c([nH]c4ccccc34)[C@@](C(=O)OC)(c3cc4c(cc3OC)N(C)[C@H]3[C@@](O)(C(=O)OC)[C@H](OC(C)=O)[C@]5(CC)C=CCN6CC[C@]43[C@@H]65)C2)C1 [Vinblastine]	9.1	10.2	23.7	13.2	2.2	16.2	12.7	22.2	-9.2	22.3	12.3	13.2	8.4
CC[C@]1(O)C[C@H]2CN(CCc3c([nH]c4ccccc34)[C@@](C(=O)OC)(c3cc4c(cc3OC)N(C=O)[C@H]3[C@@](O)(C(=O)OC)[C@H](OC(C)=O)[C@]5(CC)C=CCN6CC[C@]43[C@@H]65)C2)C1 [Vincristine]	9.3	10	26	10.8	-4.8	18.3	16.9	24	-10.2	24.2	13.2	16.1	13.4
CCC1=C[C@@H]2CN(C1)Cc1c([nH]c3ccccc13)[C@@](C(=O)OC)(c1cc3c(cc1OC)N(C)[C@H]1[C@@](O)(C(=O)OC)[C@H](OC(C)=O)[C@]4(CC)C=CCN5CC[C@]31[C@@H]54)C2 [Vinorelbine]	8.7	12.2	24.7	6.9	9.1	20.4	14.7	22.8	0.2	23.7	15.4	15.8	4.3
CS(=O)(=O)c1ccc(C(=O)Nc2ccc(Cl)c(-c3ccccn3)c2)c(Cl)c1 [Vismodegib]	-2.7	-2.7	-2.6	-2.4	-2.6	1.4	2.8	7.1	-6.9	4.7	5.2	0.4	1.1
CC[C@@H]1C(=O)N(C)c2cnc(Nc3ccc(C(=O)N[C@H]4CC[C@H](N5CCN(CC6CC6)CC5)CC4)cc3OC)nc2N1C(C)C [Volasertib]	-2.4	16.6	16.1	4	13.2	8.9	4.5	9.4	-2.3	10.3	0.5	2.9	-3.8
O=C(CCCCCCC(=O)Nc1ccccc1)NO [Vorinostat]	-4	5.3	6.6	-3.6	0.5	-0.7	5.1	8	3.3	9.5	7.3	6.3	-0.2
Oc1nc(-c2ccc(C(F)(F)F)cc2)nc2c1CSCC2 [XAV-939]	-2.2	3.7	-0.6	1.6	3.9	2.7	-2.2	-1.2	7.7	-2.2	-2.2	-1.4	4.3
COc1ccc(C(=O)CC2(O)C(=O)Nc3c(Cl)ccc(Cl)c32)cc1 (stereo unspecified) [YK-4-279]	0.2	2.9	3.8	-3	1.9	3.1	-0.3	8.2	-20.3	4.5	-3.2	0	-2
COCC[n+]1c2c(n(Cc3cnccn3)c1C)C(=O)c1ccccc1C2=O [YM155]	-2	2.3	9.3	-4.4	2.5	10.2	6.8	9.6	9.6	5.7	9.9	10.1	-0.4
CC(C)NCCCn1c(Sc2cc3c(cc2I)OCO3)nc2c(N)ncnc21 [Zelavespib]	0.5	2.3	7.3	-7.7	3.1	-0.6	5.8	3.4	4.4	0.8	-2.1	0.4	-1.1
